What is called MIC is the lowest concentration found to suppress growth. A lower MIC goes with inhibition by little substance.

The values that follow come from patent publication EP0724571B1, “SUBSTITUTED PYRIDINE-2-ONES AND SUBSTITUTED PYRIDINE-2-THIONES AS BIOCIDES” (Arch Chemicals, Inc., priority 1993, dated 1995).

Common to all, as to assay: Minimum Inhibitory Concentration (MIC), broth serial dilution
Type in all cases: cell-based

The test system of one assay is Candida albicans. As to conditions: 120 h; C=Candida albicans; Sabouraud Dextrose Broth, 10^5 cells or spores/ml, 37°C, yeast incubated five days. As to the method:
(§1) Solutions of the experimental compounds in dimethyl sulfoxide were serially diluted in nutrient broth (Tryptic Soy Broth for bacteria and Sabouraud Dextrose Broth for fungi) in microliter plates. Equal volumes of a broth suspension of bacteria (10^6 CFU/ml) or fungi (10^5 cells or spores/ml) were added to each dilution, and the plates were incubated at 37°C (bacteria and yeast) or 28°C (molds). Bacteria, yeast and molds were incubated two, five and seven days respectively before determining the highest inhibitory dilution.

The test system of a further assay is Aspergillus niger. To be noted: 168 h; E=Aspergillus niger; Sabouraud Dextrose Broth, 10^5 cells or spores/ml, 28°C, molds incubated seven days. The method, then:
as §1

For a further assay, the system named is Aureobasidium pullulans. As to conditions: F=Aureobasidium pullulans; Sabouraud Dextrose Broth, 10^5 cells or spores/ml. As to the method: as §1
The subject of a further assay is Escherichia coli. To be noted: 48 h; A=Escherichia coli; Tryptic Soy Broth, 10^6 CFU/ml, 37°C, bacteria incubated two days. The method, then: as §1
In the next assay the test system is Fusarium sp. As to conditions: 168 h; D=Fusarium sp.; Sabouraud Dextrose Broth, 10^5 cells or spores/ml, 28°C, molds incubated seven days. As to the method:
as §1

A further assay concerns Staphylococcus aureus. To be noted: 48 h; B=Staphylococcus aureus; Tryptic Soy Broth, 10^6 CFU/ml, 37°C, bacteria incubated two days. As to the method:
as §1

In brackets after ≈: the same amount, converted by molar mass.

As to `CC(CCOc1cccc(=O)n1O)CC(C)(C)C` (stereo not drawn) [Example 1, 1-Hydroxy-6-(3,5,5-trimethylhexyloxy)-pyridine-2(1H)-one], the MIC in the assay on Candida albicans is 2 µg/mL (≈ 7.89 µM); against Aspergillus niger it was 16 µg/mL (≈ 63.2 µM); against Aureobasidium pullulans, 2 µg/mL (≈ 7.89 µM); against Escherichia coli, 32 µg/mL (≈ 126 µM); against Fusarium sp. it was 2 µg/mL (≈ 7.89 µM); against Staphylococcus aureus, 32 µg/mL (≈ 126 µM).

As for `CCCCCCCCOc1cccc(=O)n1O` [Example 2, 1-Hydroxy-6-octyloxypyridine-2(1H)-one], the MIC against Candida albicans came out at 4 µg/mL (≈ 16.7 µM); in the assay on Aspergillus niger, 32 µg/mL (≈ 134 µM); in the assay with Aureobasidium pullulans it was 4 µg/mL (≈ 16.7 µM); in the assay with Escherichia coli, 32 µg/mL (≈ 134 µM); against Fusarium sp. it was 2 µg/mL (≈ 8.36 µM); in the assay on Staphylococcus aureus, 16 µg/mL (≈ 66.9 µM).

On to `CCCCCCCCOc1cccc(=S)n1O` [Example 3, 1-hydroxy-6-octyloxypyridine-2(1H)-thione], for which the MIC against Candida albicans was found to be 4 µg/mL (≈ 15.7 µM); against Aspergillus niger it was 8 µg/mL (≈ 31.3 µM); in the assay with Aureobasidium pullulans it was 16 µg/mL (≈ 62.7 µM); in the assay with Escherichia coli, 16 µg/mL (≈ 62.7 µM); in the assay with Fusarium sp. it was 4 µg/mL (≈ 15.7 µM); in the assay with Staphylococcus aureus, 16 µg/mL (≈ 62.7 µM).

Take `Cc1cc(CC(C)CC(C)(C)C)n(O)c(=O)c1` (stereo not drawn) [OCTOPIROX® biocide, reference compound]: the MIC against Candida albicans is 2 µg/mL (≈ 8.43 µM); against Aspergillus niger, 2 µg/mL (≈ 8.43 µM); in the assay on Aureobasidium pullulans, 16 to 32 µg/mL (≈ 67.4 to 135 µM); against Escherichia coli, 128 µg/mL (≈ 539 µM); against Fusarium sp. it was 2 µg/mL (≈ 8.43 µM); in the assay with Staphylococcus aureus, 64 µg/mL (≈ 270 µM).
